Experimental data: ChEMBL document CHEMBL5346899, “PKM2/PDK1 dual-targeted shikonin derivatives restore the sensitivity of EGFR-mutated NSCLC cells to gefitinib by remodeling glucose metabolism” (Eur J Med Chem, 2023)
The source made the active and inactive calls. No cut-off for these calls is given here.

Key:
NCI-H1299 [1] = assay: Induction of apoptosis in human NCI-H1299 cells assessed as live cells at 500 micromol/L incubated for 24 hrs by Annexin V-FITC/PI staining based analysis (reference value: 96.6%); format: functional; details: dose 500 µmol/L, at 500 µM
NCI-H1299 [2] = assay: Induction of apoptosis in human NCI-H1299 cells assessed as dead cells at 500 micromol/L incubated for 24 hrs in presence of AZD7545 by Annexin V-FITC/PI staining based analysis (reference value: 0.021%); format: functional; details: dose 500 µmol/L, at 500 µM
NCI-H1299 [3] = assay: Synergistic inhibition of NADPH production in human NCI-H1299 cells incubated for 2 hrs in presence of AZD7545 by NADP+/NADPH assay; format: functional, cell-based
NCI-H1299 [4] = assay: Induction of apoptosis in human NCI-H1299 cells assessed as dead cells at 500 micromol/L incubated for 24 hrs by Annexin V-FITC/PI staining based analysis (reference value: 0.021%); format: functional; details: dose 500 µmol/L, at 500 µM
NCI-H1299 [5] = assay: Inhibition of glycolysis in human NCI-H1299 cells assessed as reduction in glucose consumption incubated for 24 hrs in presence of AZD7545 by colorimetric assay; format: functional, cell-based
NCI-H1299 [6] = assay: Antitumor activity against human NCI-H1299 cells xenografted in mouse assessed as pathological damage to tumor tissue administered in presence of AZD7545; format: functional
NCI-H1299 [7] = assay: Induction of apoptosis in human NCI-H1299 cells assessed as early apoptotic cells at 500 micromol/L incubated for 24 hrs in presence of AZD7545 by Annexin V-FITC/PI staining based analysis (reference value: 0.772%); format: functional; details: dose 500 µmol/L, at 500 µM
NCI-H1299 [8] = assay: Induction of apoptosis in human NCI-H1299 cells assessed as late apoptotic cells at 500 micromol/L incubated for 24 hrs by Annexin V-FITC/PI staining based analysis (reference value: 2.63%); format: functional; details: dose 500 µmol/L, at 500 µM
NCI-H1299 [9] = assay: Induction of apoptosis in human NCI-H1299 cells assessed as live cells at 500 micromol/L incubated for 24 hrs in presence of AZD7545 by Annexin V-FITC/PI staining based analysis (reference value: 96.6%); format: functional; details: dose 500 µmol/L, at 500 µM
NCI-H1299 [10] = assay: Synergistic induction of oxidative phosphorylation in human NCI-H1299 cells assessed as increase in ATP production in presence of AZD7545 by luminescence based assay; format: functional, cell-based
NCI-H1299 [11] = assay: Inhibition of glycolysis in human NCI-H1299 cells assessed as reduction in lactate production incubated for 1 hrs in presence of AZD7545 by colorimetric assay; format: functional, cell-based
NCI-H1299 [12] = assay: Induction of apoptosis in human NCI-H1299 cells assessed as early apoptotic cells at 500 micromol/L incubated for 24 hrs by Annexin V-FITC/PI staining based analysis (reference value: 0.772%); format: functional; details: dose 500 µmol/L, at 500 µM
NCI-H1299 [13] = assay: Induction of apoptosis in human NCI-H1299 cells assessed as late apoptotic cells at 500 micromol/L incubated for 24 hrs in presence of AZD7545 by Annexin V-FITC/PI staining based analysis (reference value: 2.63%); format: functional; details: dose 500 µmol/L, at 500 µM
NCI-H1299 [14] = assay: Synergistic antiproliferative activity against human NCI-H1299 cells assessed as cell growth inhibition at 500 micromol/L incubated for 24 hrs in presence of AZD7545 by CCK-8 analysis; format: functional, cell-based; details: dose 500.0 µmol/L

## Cn1c2cc([S+](C)[O-])sc2c2cnn(Cc3cccc(N)c3)c(=O)c21 (centres undefined)
NCI-H1299 [1]
  Activity: 97%
NCI-H1299 [2]
  Activity: 0%
NCI-H1299 [3]
  inhibition: Active
NCI-H1299 [4]
  Activity: 0%
NCI-H1299 [5]
  inhibition: Active
NCI-H1299 [6]
  Activity: Active
NCI-H1299 [7]
  Activity: 7.63%
NCI-H1299 [8]
  Activity: 2.11%
NCI-H1299 [9]
  Activity: 20.6%
NCI-H1299 [10]
  Activity: Active
NCI-H1299 [11]
  inhibition: Active
NCI-H1299 [12]
  Activity: 0.923%
NCI-H1299 [13]
  Activity: 71.7%
NCI-H1299 [14]
  Activity: Active
